Experiment [1] deals with amphetamine-induced symptoms (cage movement) in rats. Nature of the experiment: Antagonism of amphetamine stereotypy in rats. It counts as in vivo, rat. To be noted: for ED50: Rattus norvegicus; for ED50 (micrograms/kilograms) 1 Hr. / ED50 (mg./kg.) 1 Hr.: 60 min; for ED50 (micrograms/kilograms) 5 Hrs. / ED50 (mg./kg.) 5 Hrs.: 300 min; for ED50 (micrograms/kilograms) 24 Hrs. / ED50 (mg./kg.) 24 Hrs.: 1440 min; for ED50 (mg./kg.) 1 Hr. / ED50 (mg./kg.) 5 Hrs. / ED50 (mg./kg.) 24 Hrs. / ED50 (mg./kg.) 72 Hrs. / ED50 (mg./kg.) 48 Hrs.: Part D, enantiomers from Example 21; for ED50 (mg./kg.) 72 Hrs.: 4320 min; for ED50 (mg./kg.) 48 Hrs.: 2880 min. The method, then:
Antagonism of Amphetamine Stereotypy in Rats Test Procedures and Results
The effects of the compounds of the present invention on prominent amphetamine-induced symptoms were studied in rats by a rating scale modeled after the one reported by Quinton and Halliwell, and Weissman. Groups of five rats were placed in a covered plastic cage measuring approximately 26 cm.×42 cm.×16 cm. […] They were then treated 1, 5 and 24 hrs. later with d-amphetamine sulfate, 5 mg./kg. intraperitoneally (i.p.). […] On the basis of dose-response data after amphetamine it was possible to determine the effective dose of the compound necessary to antagonize or block the characteristic amphetamine behavior of cage movement for fifty percent of the rats tested (ED50). The time of rating chosen coincides with the peak action of amphetamine which is 60-80 min. after treatment with this agent.
Employing the above-described procedure, the following 4a,9b-trans compounds were tested for their ability to block the behavior effects of amphetamine, the results being reported as the ED50 in mg./kg. at the indicated times: [drawing 31]
A. The following results were obtained on the mixture of diastereomers for those compounds wherein R contains a secondary alcohol group and on the single diastereomer of the other 4a, 9b-trans hexahydro-pyrido-indoles.
B. The results of tests in which compounds of the invention reported in Part A, above are compared with the corresponding δ-substituted-5-aryl-1,2,3,4-tetrahydropyrido[4,3-b]indoles of U.S. Pat. No. 4,001,263 are summarized below. For each pair the results obtained on the prior art compound (a) are given first and the results for the compound of the invention (b) are given second. Where indicated the test compound was also administered orally (p.o.) and tests were carried out for 48 hours.
C. Test results expressed as micrograms/kilograms, obtained on the diastereomers αβ and γδ separated in Example 13 and each of the enantiomers α, β, γ and δ resolved by the procedure of Example 14 are shown below. In each case the compounds are of the formula
The tests were carried out for 72 hours.

The target of experiment [2] is dopamine receptors (Rattus norvegicus, UniProt P61169). Nature of the experiment: Inhibition of 3H-spiroperidol binding to dopamine receptors. Also noted: species or system rat (Sprague-Dawley CD males). To be noted: rat corpus striatum; 0.5 nM 3H-spiroperidol; 10 min at 37° C.; hydrochloride salts.
The mark [3] stands for this setting: sc, 1 h, Part A, 1 hr, test compound s.c. (method), read-out: ED50 (mg./kg.) 1 Hr.
[4] abbreviates: sc, 5 h, Part A, 5 hr, test compound s.c. (method), read-out: ED50 (mg./kg.) 5 Hr.
[5] abbreviates: sc, 24 h, Part A, 24 hrs, test compound s.c. (method), read-out: ED50 (mg./kg.) 24 Hrs.
[6] abbreviates: ip, 1 h, Part B, 1 hr, i.p., read-out: ED50 (mg./kg.) 1 Hr.
Where [7] appears, read: ip, 5 h, Part B, 5 hrs, i.p., read-out: ED50 (mg./kg.) 5 Hrs.
[8] abbreviates: ip, 24 h, Part B, 24 hrs, i.p., read-out: ED50 (mg./kg.) 24 Hrs.
[9] abbreviates: sc, 1 h, read-out: ED50 (mg./kg.) 1 Hr.
Setting [10] is: sc, 5 h, read-out: ED50 (mg./kg.) 5 Hr.

Where a name gives a salt, the structure may show the parent alone. Read-outs that look alike come from different tables or passages of the source.

dopamine receptors, sequence (P61169 whole entry): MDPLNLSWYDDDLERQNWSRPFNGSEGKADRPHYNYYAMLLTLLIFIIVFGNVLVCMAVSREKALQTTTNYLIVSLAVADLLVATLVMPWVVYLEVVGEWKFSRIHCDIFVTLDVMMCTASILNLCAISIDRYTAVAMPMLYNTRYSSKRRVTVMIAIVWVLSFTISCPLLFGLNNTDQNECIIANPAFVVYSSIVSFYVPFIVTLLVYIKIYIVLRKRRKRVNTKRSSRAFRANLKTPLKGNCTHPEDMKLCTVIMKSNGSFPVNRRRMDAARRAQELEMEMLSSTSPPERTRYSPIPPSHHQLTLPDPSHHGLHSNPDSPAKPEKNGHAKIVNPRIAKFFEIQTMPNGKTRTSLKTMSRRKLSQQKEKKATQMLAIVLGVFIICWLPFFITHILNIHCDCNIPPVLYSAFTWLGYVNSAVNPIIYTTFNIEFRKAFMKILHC

In the case of `COc1ccc(C(O)CCCN2CCC3C(C2)c2ccccc2N3c2ccccc2)cc1` (stereo not shown), the ED50 was 0.1 to 0.32 mg/kg in experiment [1] (setting [3]), 0.1 to 0.32 mg/kg in experiment [1] (setting [4]) and about 1 mg/kg in experiment [1] (setting [5]).

Regarding `OC(CCCN1CC[C@@H]2[C@@H](C1)c1ccccc1N2c1ccccc1)c1ccccc1` (relative stereo), the ED50 in experiment [1] (setting [6]) fell in the range of 0.032 to 0.1 mg/kg; in experiment [1] (setting [7]) it was 0.032 to 0.1 mg/kg; in experiment [1] (setting [8]) it was 0.1 to 0.32 mg/kg; in experiment [1] (setting [3]), 0.032 to 0.1 mg/kg; in experiment [1] (setting [4]), 0.032 to 0.1 mg/kg; in experiment [1] (setting [5]) it was 0.1 to 0.32 mg/kg.

For `OC(CCCN1CC[C@@H]2[C@@H](C1)c1ccccc1N2c1ccccc1)c1ccc(F)cc1` (relative stereo), the ED50 in experiment [1] (setting [3]), in experiment [1] (setting [4]) and in experiment [1] (setting [5]) was 0.1 to 0.32 mg/kg in each case.

As to `O=C(CCCN1CC[C@@H]2[C@@H](C1)c1ccccc1N2c1ccccc1)c1ccc(F)cc1` (relative stereo), in experiment [1] (setting [4]), the ED50 was in the range of 0.1 to 0.32 mg/kg.

As to `OC(CCCN1CC[C@@H]2[C@@H](C1)c1cc(F)ccc1N2c1ccc(F)cc1)c1ccccc1` (relative stereo), the ED50 in experiment [1] (setting [3]) is 0.1 to 0.32 mg/kg; in experiment [1] (setting [4]) it was 0.1 to 0.32 mg/kg; in experiment [1] (setting [5]), under 0.32 mg/kg.

Consider `O=C(CCCN1CC[C@@H]2[C@@H](C1)c1cc(F)ccc1N2c1ccc(F)cc1)c1ccc(F)cc1` (relative stereo), for which the ED50 in experiment [1] (setting [6]), in experiment [1] (setting [7]), in experiment [1] (setting [8]), in experiment [1] (setting [3]), in experiment [1] (setting [4]) and in experiment [1] (setting [5]) was under 1 mg/kg each time.

For the compound `c1ccc(CCCN2CC[C@@H]3[C@@H](C2)c2ccccc2N3c2ccccc2)cc1` (relative stereo) [X1=H, Y1=H, R=C6 H5 (CH2)3, reference compound], the ED50 in experiment [1] (setting [3]) was 3.2 to 10 mg/kg; in experiment [1] (setting [4]) it was 3.2 to 10 mg/kg; in experiment [1] (setting [5]) it was over 10 mg/kg.

`c1ccc(CN2CC[C@@H]3[C@@H](C2)c2ccccc2N3c2ccccc2)cc1` (relative stereo) [X1=H, Y1=H, R=C6 H5 CH2, dl-trans-2-benzyl-2,3,4,4a,5,9b-hexahydro-5-phenyl-1H-pyrido-[4,3-b]indole Hydrochloride, reference compound]: the values for the ED50 in experiment [1] (setting [3]), in experiment [1] (setting [4]) and in experiment [1] (setting [5]) were about 10 mg/kg, 3.2 to 32 mg/kg and over 3.2 mg/kg, respectively.

For the compound `c1ccc(N2c3ccccc3[C@@H]3CNCC[C@H]32)cc1` (relative stereo) [X1=H, Y1=H, R=H, dl-trans-5-Phenyl-2,3,4,4a,5,9b-hexahydro-1H-pyrido[4,3-b]indole, reference compound], the ED50 was 3.2 to 32 mg/kg in experiment [1] (setting [9]); over 3.2 mg/kg in experiment [1] (setting [10]); over 32 mg/kg in experiment [1] (sc, 24 h, read-out: ED50 (mg./kg.) 24 Hrs.).

Regarding `OC(CCCN1CC[C@@H]2[C@@H](C1)c1cc(F)ccc1N2c1ccc(F)cc1)c1ccc(F)cc1` (relative stereo) [drawing 38], the ED50 in experiment [1] (setting [6]) was in the range of 0.032 to 0.1 mg/kg; in experiment [1] (setting [7]), 0.032 to 0.1 mg/kg; in experiment [1] (setting [8]), 0.032 to 0.1 mg/kg; in experiment [1] (ip, 48 h, Part B, 48 hrs, i.p., read-out: ED50 (mg./kg.) 48 Hrs.), 0.1 to 0.32 mg/kg; in experiment [1] (po, 1 h, Part B, 1 hr, p.o., read-out: ED50 (mg./kg.) 1 Hr.) it was 0.32 to 1 mg/kg; in experiment [1] (po, 5 h, Part B, 5 hrs, p.o., read-out: ED50 (mg./kg.) 5 Hrs.) it was 0.1 to 0.32 mg/kg. For the same compound, the ED50 fell in the range of 0.1 to 0.32 mg/kg in experiment [1] (po, 24 h, Part B, 24 hrs, p.o., read-out: ED50 (mg./kg.) 24 Hrs.) and 0.032 to 0.1 mg/kg in experiment [1] (setting [3]).

For orientation: IC50 means the concentration that gives 50% inhibition. Take `OC(CCCN1CC[C@@H]2[C@@H](C1)c1cc(F)ccc1N2c1ccc(F)cc1)c1ccc(F)cc1` (relative stereo) [αβ, dl trans-8-fluoro-5-(p-fluorophenyl)-2-[4-hydroxy-4-(p-fluorophenyl)butyl]-2,3,4,4a,5,9b-hexahydro-1H-pyrido[4,3-b]indole]: the IC50 in experiment [2] amounted to 23 nM.

For `OC(CCCN1CC[C@@H]2[C@@H](C1)c1cc(F)ccc1N2c1ccc(F)cc1)c1ccc(F)cc1` (relative stereo) [αβγδ, dl-trans-8-Fluoro-5-(p-fluorophenyl)-2-[4-hydroxy-4-(p-fluorophenyl)butyl]-2,3,4,4a,5,9b-hexahydro-1H-pyrido[4,3-b]indole hydrochloride], the IC50 in experiment [2] came out at 21 nM. Besides, the ED50 was 0.032 to 0.1 mg/kg in experiment [1] (sc, 1 h, Part C, 1 hr, s.c. (method), read-out: ED50 (micrograms/kilograms) 1 Hr.); 0.032 to 0.1 mg/kg in experiment [1] (sc, 5 h, Part C, 5 hrs, s.c. (method), read-out: ED50 (micrograms/kilograms) 5 Hrs.); 0.032 to 0.1 mg/kg in experiment [1] (sc, 24 h, Part C, 24 hrs, s.c. (method), read-out: ED50 (micrograms/kilograms) 24 Hrs.).

In the case of `OC(CCCN1CCC2C(C1)c1cc(F)ccc1N2c1ccc(F)cc1)c1ccc(F)cc1` (single isomer, unassigned) [α, 8-fluoro-5-(p-fluorophenyl)-2-[4-hydroxy-4-(p-fluorophenyl)butyl]-2,3,4,4a,5,9b-hexahydro-1H-pyrido[4,3-b]indole], the “ED50 (micrograms/kilograms) 1 Hr.” value in experiment [1] (Part C, 1 hr, s.c. (method)) came to 120 micrograms/kilograms. Also, in experiment [1] (Part C, 5 hrs, s.c. (method)), the “ED50 (micrograms/kilograms) 5 Hrs.” value is recorded as 32-100 micrograms/kilograms. Further, the “ED50 (micrograms/kilograms) 24 Hrs.” value in experiment [1] (Part C, 24 hrs, s.c. (method)) is listed as 32-100 micrograms/kilograms. Besides, the “ED50 (mg./kg.) 1 Hr.” value in experiment [1] (1 hr) was determined as 0.023 mg/kg. Moreover, the “ED50 (mg./kg.) 5 Hrs.” value in experiment [1] (5 hrs) was 0.014 mg/kg. Also, the “ED50 (mg./kg.) 24 Hrs.” value in experiment [1] (24 hrs) came out at 0.033 mg/kg. In addition, the “ED50 (mg./kg.) 72 Hrs.” value in experiment [1] was over 10 mg/kg.

Turning to `OC(CCCN1CCC2C(C1)c1cc(F)ccc1N2c1ccc(F)cc1)c1ccc(F)cc1` (single isomer, unassigned) [β, 8-fluoro-5-(p-fluorophenyl)-2-[4-hydroxy-4-(p-fluorophenyl)butyl]-2,3,4,4a,5,9b-hexahydro-1H-pyrido[4,3-b]indole hydrochloride], in experiment [2], the IC50 stood at 1800 nM.

On to `OC(CCCN1CCC2C(C1)c1cc(F)ccc1N2c1ccc(F)cc1)c1ccc(F)cc1` (single isomer, unassigned) [γ, 8-fluoro-5-(p-fluorophenyl)-2-[4-hydroxy-4-(p-fluorophenyl)butyl]-2,3,4,4a,5,9b-hexahydro-1H-pyrido[4,3-b]indole], for which, in experiment [1] (Part C, 1 hr, s.c. (method)), the “ED50 (micrograms/kilograms) 1 Hr.” value came out at 180 micrograms/kilograms. Also, the “ED50 (micrograms/kilograms) 5 Hrs.” value in experiment [1] (Part C, 5 hrs, s.c. (method)) is 32-100 micrograms/kilograms. The “ED50 (micrograms/kilograms) 24 Hrs.” value in experiment [1] (Part C, 24 hrs, s.c. (method)) was 32-100 micrograms/kilograms. Moreover, the “ED50 (mg./kg.) 1 Hr.” value in experiment [1] (1 hr) is 0.178 mg/kg. Moreover, the “ED50 (mg./kg.) 5 Hrs.” value in experiment [1] (5 hrs) was 0.045 mg/kg. Further, the “ED50 (mg./kg.) 24 Hrs.” value in experiment [1] (24 hrs) was 0.018 mg/kg. For the same compound, in experiment [1] (48 hrs), the “ED50 (mg./kg.) 48 Hrs.” value is listed as “ca. 1 mg./kg”. Also, the “ED50 (mg./kg.) 72 Hrs.” value in experiment [1] is over 1 mg/kg.

`OC(CCCN1CCC2C(C1)c1cc(F)ccc1N2c1ccc(F)cc1)c1ccc(F)cc1` (single isomer, unassigned) [δ, 8-fluoro-5-(p-fluorophenyl)-2-[4-hydroxy-4-(p-fluorophenyl)butyl]-2,3,4,4a,5,9b-hexahydro-1H-pyrido[4,3-b]indole]: in experiment [1] (Part C, 1 hr, s.c. (method)), the “ED50 (micrograms/kilograms) 1 Hr.” value is over 1000 micrograms/kilograms. Besides, in experiment [1] (Part C, 5 hrs, s.c. (method)), the “ED50 (micrograms/kilograms) 5 Hrs.” value is on record as 560 micrograms/kilograms. In experiment [1] (Part C, 24 hrs, s.c. (method)), the “ED50 (micrograms/kilograms) 24 Hrs.” value is listed as 320-1000 micrograms/kilograms. The “ED50 (mg./kg.) 1 Hr.” value in experiment [1] (1 hr) was over 10 mg/kg. Also, the “ED50 (mg./kg.) 5 Hrs.” value in experiment [1] (5 hrs) worked out at 5.7 mg/kg. The “ED50 (mg./kg.) 24 Hrs.” value in experiment [1] (24 hrs) was over 10 mg/kg. For the same compound, the “ED50 (mg./kg.) 48 Hrs.” value in experiment [1] (48 hrs) was over 10 mg/kg. Further, the “ED50 (mg./kg.) 72 Hrs.” value in experiment [1] is over 10 mg/kg.

`CCN1CCC2C(C1)c1ccccc1N2c1ccccc1` (stereo not shown) [X1=H, Y1=H, R=C2 H5, reference compound]: the ED50 in experiment [1] (setting [9]) is about 1 mg/kg; in experiment [1] (setting [10]), over 3.2 mg/kg.

These data come from patent US4252812A, “2-Substituted-trans-5-ar yl-2,3,4,4a,5,9b-hexahydro-1H-pyrido[4,3-b]indoles” (Pfizer Inc., priority 1980, dated 1981).
